Results taken from article PMC9706920, “Aryloxypropanolamine targets amyloid aggregates and reverses Alzheimer-like phenotypes in Alzheimer mouse models” (Alzheimer's Research & Therapy, 2022).

Tests used:
[1] = Observation of adverse effects in the current studies
[2] = Microsomal stability, human; assay type: in vitro ADME; details: 1 μM, 30 min, 37°C
Method: (§1) To evaluate the rate of drug metabolism, we tested YIAD002 stability in liver microsomes of human, rat, and mouse. Microsomal concentration was 0.5 mg/ml in 0.1 M phosphate buffer (pH 7.4). 1 μM of YIAD002 was added to microsome solutions and was prewarmed at 37°C for 5 min. NADPH-regenerating solution was added to microsomes and incubated at 37°C for 30 min. At the end of incubation, acetonitrile with chlorpropamide was added to stop reactions and microsomal solutions were centrifuged at 14,000 rpm at 4°C for 5 min. For LC-MS/MS analysis, supernatants were injected on a Kinetex C18 column (2.1 × 100 mm, 2.6 μm particle size, Phenomenex, USA). The composition of the mobile phase was 0.1% formic acid in water (A) and 0.1% formic acid in acetonitrile (B).

α-synuclein aggregates = α-synuclein aggregates (Homo sapiens, UniProt P37840); assay: ThT dissociation assay against α-synuclein aggregation; assay type: biochemical; details: α-synuclein 35 μM pre-aggregated 3 days, compound additional 3 days
Method: [picture] Figure S5. ThT dissocation assay against α-synuclein aggregation. Dissociative effects of YIAD001 and YIAD002 against α-synuclein aggregation were evaluated using ThT fluorescence. α-synuclein (35 μM) was pre-aggregated for 3 days. YIAD001 and YIAD002 were added to and co-incubated with pre-aggregated samples for an additional 3 days. Aggregation time for α-synuclein is indicated as ‘+’ for 3 days and ‘++’ for 6 days. All fluorescence intensities were normalized and statistically compared to α-synuclein-only 3 days (+) control (100%). One-way analysis of variance followed by Bonferroni’s post-hoc comparisons tests were performed in all statistical analyses (****P < 0.0001). Data are presented as mean ± SEM. Abbreviations: Aggr. = Aggregation, Cpd. = Compound.

[3] = Microsomal stability, mouse; assay type: in vitro ADME; details: 1 μM, 30 min, 37°C
Method: as §1

CYP 3A4 = biological target: T1, CYP 3A4 (Homo sapiens, UniProt P08684); assay: CYP450 inhibition assay, 3A4; assay type: in vitro ADME; details: YIAD002 10 μM, human liver microsomes; weak or no inhibition; read-out: CYP 3A4 inhibition, IC50 (inhibition criteria)
T1 construct: contained human liver microsomes (0.25 mg/ml); from tissue; host or cells: human liver microsomes
Method: (§2) Incubation mixtures for Cytochrome P450s (CYPs) inhibition assay contained human liver microsomes (0.25 mg/ml), 0.1 M phosphate buffer (pH 7.4), 10 μM of YIAD002, and an enzyme substrate cocktail (phenacetin 50 μM, diclofenac 10 μM, S-mephenytoin 100 μM, dextromethorphan 5 μM, and midazolam 2.5 μM). The mixture was pre-incubated at 37°C for 5 min and 1 mM NAPDH was added to initiate reactions. After 15 min of incubation, acetonitrile with terfenadine was added to stop reactions and microsomal solutions were centrifuged at 14,000 rpm at 4°C for 5 min. For LC-MS/MS analysis, supernatants were injected on a Kinetex C18 column (2.1 × 100 mm, 2.6 μm particle size, Phenomenex, USA). The composition of the mobile phase was 0.1% formic acid in water (A) and 0.1% formic acid in acetonitrile (B).

APP/PS1 mice = assay: Morris water maze in APP/PS1 mice; assay type: in vivo, mouse; details: 30 mg/kg/day oral, 10 weeks, vs vehicle
Method: To test whether YIAD002 could reduce amyloid plaques in another AD mouse model, APP/PS1 transgenic mice (n = 24) and wildtype mice (n = 5) were assessed at the age of 7.5 months. YIAD002 was dissolved in PBS (0.5% methylcellulose) at two different concentrations (10 and 30 mg/kg/day) and administrated daily to APP/PS1 mice (n = 8 for each group) via oral gavage for 8 weeks. As a control, vehicle solutions were orally administrated to littermate APP/PS1 mice (n = 8) and wildtype mice (n = 5).
The Morris water maze was used to evaluate whether YIAD002 could improve cognitive function in APP/PS1 mice during the tenth week of administration. A circular stainless pool with a radius of 90 cm and height of 50 cm with water kept at 22±1°C. Nontoxic opaque white paint was used to hide a platform with a radius of 9 cm hidden 1 cm beneath the surface. The training phase consisted of 5 days, in which the mice were given 60 s to find the platform. On circumstances where a mouse could not reach the platform within 60 s, it was placed on the platform where it had to remain for 10 s. The probe test took place on the sixth day, in which the platform was removed and the mice swam freely for 60 s. Swimming trajectories were recorded and analyzed using SMART VIDEO TRACKING Software (Panlab, USA). To assess cognitive improvement in YIAD002-treated mice groups, latency to target (seconds) and the number of target crossings were compared to vehicle-treated APP/PS1 mice. After the probe trial, the mice were sacrificed and the collected brains were fixed in formalin.

CYP 1A2 = biological target: T2, CYP 1A2 (Homo sapiens, UniProt P05177); assay: CYP450 inhibition assay, 1A2; assay type: in vitro ADME; details: YIAD002 10 μM, human liver microsomes; weak or no inhibition; read-out: CYP 1A2 inhibition, IC50 (inhibition criteria)
T2 construct: […]; from tissue; host or cells: human liver microsomes
T2 sequence (P05177 1-516): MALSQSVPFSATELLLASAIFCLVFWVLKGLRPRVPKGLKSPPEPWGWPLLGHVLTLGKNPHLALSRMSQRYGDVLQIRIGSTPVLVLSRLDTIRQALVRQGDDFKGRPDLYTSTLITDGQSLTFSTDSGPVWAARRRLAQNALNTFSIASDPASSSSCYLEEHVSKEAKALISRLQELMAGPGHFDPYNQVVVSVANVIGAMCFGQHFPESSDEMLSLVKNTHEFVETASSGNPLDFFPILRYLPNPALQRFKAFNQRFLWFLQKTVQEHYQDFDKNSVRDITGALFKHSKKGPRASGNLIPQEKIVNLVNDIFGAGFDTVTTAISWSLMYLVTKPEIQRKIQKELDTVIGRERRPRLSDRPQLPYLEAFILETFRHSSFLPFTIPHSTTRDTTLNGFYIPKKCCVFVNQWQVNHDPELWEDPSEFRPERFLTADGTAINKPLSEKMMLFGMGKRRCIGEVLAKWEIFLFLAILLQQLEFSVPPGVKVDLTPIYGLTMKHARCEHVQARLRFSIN
Method: as §2

T1 sequence (P08684 whole entry): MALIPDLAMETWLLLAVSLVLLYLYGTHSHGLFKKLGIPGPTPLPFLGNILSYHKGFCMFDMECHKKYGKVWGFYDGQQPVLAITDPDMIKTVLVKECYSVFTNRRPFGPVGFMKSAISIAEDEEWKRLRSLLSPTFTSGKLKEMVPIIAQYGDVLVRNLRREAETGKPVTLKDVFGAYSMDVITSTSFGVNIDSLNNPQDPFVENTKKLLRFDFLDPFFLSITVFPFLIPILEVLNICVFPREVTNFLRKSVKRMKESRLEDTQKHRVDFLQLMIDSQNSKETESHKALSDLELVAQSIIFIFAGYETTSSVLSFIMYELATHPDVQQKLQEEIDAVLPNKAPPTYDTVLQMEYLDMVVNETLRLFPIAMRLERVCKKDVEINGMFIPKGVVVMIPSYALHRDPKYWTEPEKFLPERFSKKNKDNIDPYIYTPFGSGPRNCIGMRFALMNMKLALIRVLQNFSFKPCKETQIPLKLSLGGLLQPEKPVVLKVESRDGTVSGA

CCC(C)(C)c1ccc(OCC(O)CN2CCCC2)c(C(C)(C)CC)c1.Cl (stereo not drawn) [YIAD002, 1-(3-(2,4-Di-tert-pentylphenoxy)-2-hydroxypropyl)pyrrolidin-1-ium chloride]
Adverse effects of toxicity [1]: not observed | Remaining compound in human microsomes [2]: 55.5% | Interaction with α-synuclein aggregates (ThT dissociation) (α-synuclein aggregates): did not interact with α-synuclein aggregates | Remaining compound in mouse microsomes [3]: 14.2% | IC50 (CYP 3A4): > 10 µM | Escape latency after 5 days of training (APP/PS1 mice; 7.5-month-old APP/PS1 mice): significantly shortened | Latency to target, probe trial (APP/PS1 mice; APP/PS1 mice): significantly shorter | Target crossings, probe trial (APP/PS1 mice; APP/PS1 mice): increased target crossings | IC50 (CYP 1A2): > 10 µM
